Source: patent US20040121994A1, “Novel amides that activate soluble guanylate cyclase” (priority 2002, published 2004)

Biological target: T1, soluble guanylate cyclase (sGC), α1 and β1 subunits of guanylate cyclase expressed in Sf9 cells (Homo sapiens, UniProt Q02108+Q02153)
T1 construct: made in house; host or cells: Sf9 insect cells (baculovirus co-infection)
T1 sequence (Q02108 1-690): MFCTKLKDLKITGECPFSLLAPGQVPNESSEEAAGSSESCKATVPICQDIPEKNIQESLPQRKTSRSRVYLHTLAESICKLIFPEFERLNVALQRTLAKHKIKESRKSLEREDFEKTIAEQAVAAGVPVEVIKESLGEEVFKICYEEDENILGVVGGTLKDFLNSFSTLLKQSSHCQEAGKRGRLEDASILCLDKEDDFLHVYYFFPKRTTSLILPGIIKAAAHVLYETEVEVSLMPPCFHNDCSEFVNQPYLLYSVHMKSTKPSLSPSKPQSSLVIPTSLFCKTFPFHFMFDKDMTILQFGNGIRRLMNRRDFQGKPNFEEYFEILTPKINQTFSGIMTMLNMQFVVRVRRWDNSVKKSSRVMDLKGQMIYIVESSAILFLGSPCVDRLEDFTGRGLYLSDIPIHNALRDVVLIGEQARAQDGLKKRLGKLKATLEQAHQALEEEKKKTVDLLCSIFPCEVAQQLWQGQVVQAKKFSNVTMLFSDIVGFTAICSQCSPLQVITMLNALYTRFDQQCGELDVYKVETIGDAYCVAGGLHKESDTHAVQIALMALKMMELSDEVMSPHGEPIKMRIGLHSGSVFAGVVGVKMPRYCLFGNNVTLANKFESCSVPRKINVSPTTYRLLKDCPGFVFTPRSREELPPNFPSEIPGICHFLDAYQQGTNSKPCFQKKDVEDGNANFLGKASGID
T1 sequence (Q02153 1-619): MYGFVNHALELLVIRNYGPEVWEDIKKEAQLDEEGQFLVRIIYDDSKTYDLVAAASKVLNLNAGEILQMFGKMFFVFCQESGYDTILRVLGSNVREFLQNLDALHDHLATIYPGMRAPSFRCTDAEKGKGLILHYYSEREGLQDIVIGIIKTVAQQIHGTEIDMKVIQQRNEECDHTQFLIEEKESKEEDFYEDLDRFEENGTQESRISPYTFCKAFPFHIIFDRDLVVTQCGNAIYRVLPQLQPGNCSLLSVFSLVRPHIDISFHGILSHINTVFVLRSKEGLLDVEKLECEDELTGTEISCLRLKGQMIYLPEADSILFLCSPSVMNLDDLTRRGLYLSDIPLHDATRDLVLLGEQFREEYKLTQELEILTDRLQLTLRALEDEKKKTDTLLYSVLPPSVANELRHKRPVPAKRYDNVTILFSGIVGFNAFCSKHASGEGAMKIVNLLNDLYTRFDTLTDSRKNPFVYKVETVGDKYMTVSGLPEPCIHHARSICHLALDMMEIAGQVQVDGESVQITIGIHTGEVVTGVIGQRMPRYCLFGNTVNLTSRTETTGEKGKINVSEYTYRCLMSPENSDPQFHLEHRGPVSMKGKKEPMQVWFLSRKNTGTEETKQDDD
Experiment: Guanylate cyclase assay (formation of cyclic GMP from GTP)
Assay type: biochemical
Details: for Mean activation at 100 μM: (activity of compound at 100 μM with 1 μM SNP)−(activity of compound at 100 μM)/(activity of SNP at 1 μM)−(basal activity of sGC); for Mean efficacy of compound combined with 1 μM of SNP, [%]: compound at 100 μM with 1 μM sodium nitro prusside (SNP); for Emax at 100 µM: read-out: Mean basal efficacy of compound alone at 100 μM, [%]
Method: Sf9 cells were cultured in Sf-90011 medium supplemented with 10% (v/v) fetal calf serum at 28° C. to give a count of 6×10^5 cells/ml. The cells were then infected with a mixture of the virus stocks for the α1 and β1 subunits of guanylate cyclase at a multiplicity of infection of 0.1 pfu/cell. The cells were harvested 72 hours after infection and were pelleted by centrifugation. The resulting cell pellets were homogenized with Polytron homogenizer in 3 volumes of 20 mM Tris-HCl (pH 7.6) containing 1 mM EDTA, 5 mM dithiothreitol, 90 mM NaCl, 10% glycerol, and protease inhibitors mix (Roche Molecular Biochemicals). The homogenate was centrifuged at 50,000×g for 60 minutes and the supernatant was aliquotted and stored at −80° C.
Compounds of the present invention were dissolved in DMSO to make 100 mM and saved as stocks at −20° C. When compounds were tested, prepared 10-fold concentrated solutions with 10% DMSO. Then added 10 μl of 10-fold concentrated compound solutions to the reaction mixture of total 100 μl.
Guanylate cyclase activity was measured by the formation of cyclic GMP from GTP in a total volume of 100 μl. Guanylate cyclase-expressed Sf9 cell high-speed supernatant was used as an enzyme source for the assay. The reaction mixture containing 0.1 μl enzyme (Sf9 high-speed sup), compound solution, 50 mM Tris-HCl (pH 7.6), 4 mM MgCl2, 0.5 mM IBMX, 15 mM creatine phosphate, 20 μg creatine phosphokinase, 0.1% BSA and 1 mM GTP was incubated at 37° C. for 15 minutes. After the reaction, 0.9 ml of 50 mM sodium acetate buffer (pH 5.8) was added followed by boiling for 3 minutes to stop the reaction. The solution was centrifuged at 3000 rpm for 15 minutes at room temperature and cyclic GMP in 20 μl of the resulting supernatant was measured according to the protocol of Amersham cyclic GMP enzymeimmunoassay system (purchased from Sigma, catalogue number RPN 226).
Compounds of the present invention were tested at 100 μM with and without 1 μM sodium nitro prusside (SNP). 1-Benzyl-3-hydroxymethyl-2-furylindazole (YC-1) was included as a standard for each assay. The data was normalized with the activity of 100 μM YC-1 (without SNP) as 100%. Mean basal efficacy, in Table 1, was expressed as a percentage of 100 μM YC-1 (without SNP).
The mean activation, in Table 1, was calculated based on the formula: (activity of compound of the present invention at 100 μM with 1 μM SNP)−(activity of compound of the present invention at 100 μM)/(activity of SNP at 1 μM)−(basal activity of sGC).

[1] = normalized with the activity of 100 μM YC-1 (without SNP) as 100%
[2] = compound at 100 μM without SNP, normalized with the activity of 100 μM YC-1 (without SNP) as 100%

Row | Molecule | Mean activation at 100 μM | Mean efficacy of compound combined with 1 μM of SNP, [%] [1] | Emax at 100 µM [2] | Mean basal efficacy of compound alone at 100 μM, [%] [2]
1 | Cc1ccc(Sc2ccccc2/C=C/C(=O)NC2CCC(O)CC2)cc1 (stereo not shown) [Example 42, (2E)-N-(4-hydroxycyclohexyl)-3-{2-[(4-methylphenyl)thio]phenyl}acrylamide] | 4.8 | 58% | 14% | 
2 | CC(C)CCSc1ccccc1/C=C/C(=O)NCCCO [Example 57, (2E)-N-(3-hydroxypropyl)-3-{2-[(3-methylbutyl)thio]phenyl}acrylamide] | 8.4 | 303% | 200% | 
3 | O=C(CCc1ccccc1Sc1ccc(Cl)cc1)NCCCCO [Example 1, 3-{2-[(4-chlorophenyl)thio]phenyl}-N-(4-hydroxybutyl)propanamide] | 2.4 | 25% | 4% | 
4 | O=C(/C=C/c1ccccc1SC1CCCCC1)NC1CCCCC1O (stereo not shown) [Example 23, (2E)-3-[2-(cyclohexylthio)phenyl]-N-(2-hydroxycyclohexyl)acrylamide] | 2.7 | 187% | 174% | 
5 | O=C(/C=C/c1cccnc1Sc1ccccc1)NC1CCC(O)CC1 (stereo not shown) [Example 19, (2E)-N-(4-hydroxycyclohexyl)-3-[2-(phenylthio)-3-pyridinyl]acrylamide] | 4.8 | 120% | 37% | 
6 | O=C(/C=C/c1c(F)cccc1Sc1ccc(Cl)cc1)NCCCCO [Example 41, (2E)-3-{2-[(4-chlorophenyl)thio]-6-fluorophenyl}-N-(4-hydroxybutyl)acrylamide] | 3.8 | 69% | 5% | 
7 | CC(C)CCSc1ccccc1/C=C/C(=O)NCCCCO [Example 58, (2E)-N-(4-hydroxybutyl)-3-{2-[(3-methylbutyl)thio]phenyl}acrylamide] | 7.8 | 307% | 215% | 
8 | Cc1cccc(Sc2ccccc2/C=C/C(=O)NC2CCC(O)CC2)c1 (stereo not shown) [Example 52, (2E)-N-(4-hydroxycyclohexyl)-3-{2-[(3-methylphenyl)thio]phenyl}acrylamide] | 2.7 | 50% | 11% | 
9 | O=C(/C=C/c1cccnc1Sc1ccc(Br)cc1)NC1CCC(O)CC1 (stereo not shown) [Example 18, (2E)-3-{2-[(4-bromophenyl)thio]-3-pyridinyl}-N-(4-hydroxycyclohexyl)acrylamide] |  | 113% | 43% | 
10 | CC(CCCC(C)(C)O)NC(=O)CCc1ccccc1Sc1ccc(Cl)cc1 (stereo not shown) [Example 2, 3-{2-[(4-chlorophenyl)thio]phenyl}-N-(5-hydroxy-1,5-dimethylhexyl)propanamide] | 2.6 | 84% | 9% | 
11 | O=C(/C=C/c1cc(F)ccc1Sc1ccc(Cl)cc1)NCCCCO [Example 54, (2E)-3-{2-[(4-chlorophenyl)thio]-5-fluorophenyl}-N-(4-hydroxybutyl)acrylamide] | 13.0 | 186% | 85% | 
12 | O=C(/C=C/c1cccnc1Sc1ccc(Cl)cc1Cl)NC1CCC(O)CC1 (stereo not shown) [Example 17, (2E)-3-{2-[(2,4-dichlorophenyl)thio]-3-pyridinyl}-N-(4-hydroxycyclohexyl)acrylamide] |  | 138% | 38% | 
13 | CC(O)CCCNC(=O)CCc1ccccc1Sc1ccc(Cl)cc1 (stereo not shown) [Example 9, 3-{2-[(4-chlorophenyl)thio]phenyl}-N-(4-hydroxypentyl)propanamide] | 4.0 | 22% | 4% | 
14 | COc1ccc(Sc2ccccc2/C=C/C(=O)NC2CCCCC2O)cc1 (stereo not shown) [Example 49, (2E)-N-(2-hydroxycyclohexyl)-3-{2-[(4-methoxyphenyl)thio]phenyl}acrylamide] | 3.7 | 79% | 15% | 
15 | CNCCCCNC(=O)CCc1ccccc1Sc1ccc(Cl)cc1 [Example 13, 3-{2-[(4-chlorophenyl)thio]phenyl}-N-[4-(methylamino)butyl]propanamide] | 2.4 | 25% | 4% | 
16 | O=C(/C=C/c1ccccc1SC1CCCC1)NC1CCCCC1O (stereo not shown) [Example 22, (2E)-3-[2-(cyclopentylthio)phenyl]-N-(2-hydroxycyclohexyl)acrylamide] | 3.9 | 169% | 158% | 
17 | CC(O)CNC(=O)/C=C/c1ccccc1Sc1ccc(Cl)cc1 (stereo not shown) [Example 37, (2E)-3-{2-[(4-chlorophenyl)thio]phenyl}-N-(2-hydroxypropyl)acrylamide] | 30.6 | 405% | 70% | 
18 | 2-[1-((2E)-3-{2-[(3-methylbutyl)thio]phenyl}-2-propenoyl)-4-piperidinyl]ethanol [Example 62] | 4.7 | 161% |  | 136%
19 | CNCCCCCNC(=O)CCc1ccccc1Sc1ccc(Cl)cc1 [Example 14, 3-{2-[(4-chlorophenyl)thio]phenyl}-N-[5-(methylamino)pentyl]propanamide] | 4.4 | 124% | 30% | 
20 | O=C(/C=C/c1cccnc1Sc1ccccc1Cl)NC1CCC(O)CC1 (stereo not shown) [Example 20, (2E)-3-{2-[(2-chlorophenyl)thio]-3-pyridinyl}-N-(4-hydroxycyclohexyl)acrylamide] | 6.3 | 199% | 90% | 
